Data on twelve molecules can be found in patent US20260062408A1, “PRODRUGS OF S[…]” (SYNEX HOLDINGS BV, priority 2022, published 2026).

Data set [1] in a line: Psychedelic effect in volunteers experienced with ALD-52. Particulars: human volunteers; for Substitution for ALD-52 / Emax: administered as tartrate salt; for Emax: relative to ALD-52 = 1, read-out: Maximum psychedelic effect produced (ALD-52 = 1); for Duration: duration of effect relative to ALD-52. In kind it is in vivo, humans. Here is the method:
Compounds of the invention were tested on volunteers who were experienced with the use of the related compound ALD-52. For each compound, a solution was prepared by dissolving the tartrate salt in deionized water to produce a concentration either of 1 mg/ml of the tartrate salt, or calculated to be equivalent to 1 mg/ml of the free base. This was either administered directly, or was prepared into standardised dosage units by pipetting 0.1 ml of solution onto a square of perforated blotter paper, which was placed overnight in a desiccator and allowed to evaporate to dryness.

Data set [2] concerns the target T1, 5-HT2A receptor (Mus musculus, UniProt P35363).
T1 construct: tissue Jackson Laboratories; host or cells: living male C57BL/6J mice (whole animal, brain)
Particulars: 1 mg/kg i.p., 30 min, same assay conditions; data from Halberstadt et al. 2019; cited from earlier work.

Data set [3] is described as follows: Preventative treatment of chronic cluster headache attacks in volunteers, eight weeks. The format is in vivo, humans. Particulars: for average self-rated severity of cluster headache attacks: baseline 8.78/10; for average cluster headache attacks per day: baseline 3.44 attacks per day. From the text:
Eighteen volunteers were recruited through cluster headache support groups in the Netherlands. Age range of volunteers was between 23 to 67 (average 45.17), 14 males and 4 females. All volunteers had previous experience using psychedelic drugs such as LSD or psilocybin to alleviate cluster headache attacks, as well as prescribed medications including verapamil, prednisone, sumatriptan, topiramate and indomethacin. Volunteers were asked to discontinue use of prescribed medications for five days preceding the commencement of the study and for the eight-week duration.
Participants were supplied standardised 3.0 mg dosage units of SYN-L-017 as the tartrate salt (equivalent to 2.58 mg of SYN-L-017 freebase), measured into capsules for oral administration. These were tested as a preventative for chronic cluster headache attacks. One 3 mg capsule was administered intermittently in a pattern of one day on, two days off for a period of eight weeks (using the protocol described in Karst et al. (Karst M, et al. The non-hallucinogen 2-bromo-lysergic acid diethylamide as preventative treatment for cluster headache: An open, non-randomized case series. Cephalalgia 2010; 30(9):1140-1144. DOI: 10.1177/0333102410363490)) and the volunteers were asked to keep a diary to track the frequency and self-rated severity of cluster headache attacks on a scale of 1-10.

Structures are written as SMILES.

T1 sequence (P35363 whole entry): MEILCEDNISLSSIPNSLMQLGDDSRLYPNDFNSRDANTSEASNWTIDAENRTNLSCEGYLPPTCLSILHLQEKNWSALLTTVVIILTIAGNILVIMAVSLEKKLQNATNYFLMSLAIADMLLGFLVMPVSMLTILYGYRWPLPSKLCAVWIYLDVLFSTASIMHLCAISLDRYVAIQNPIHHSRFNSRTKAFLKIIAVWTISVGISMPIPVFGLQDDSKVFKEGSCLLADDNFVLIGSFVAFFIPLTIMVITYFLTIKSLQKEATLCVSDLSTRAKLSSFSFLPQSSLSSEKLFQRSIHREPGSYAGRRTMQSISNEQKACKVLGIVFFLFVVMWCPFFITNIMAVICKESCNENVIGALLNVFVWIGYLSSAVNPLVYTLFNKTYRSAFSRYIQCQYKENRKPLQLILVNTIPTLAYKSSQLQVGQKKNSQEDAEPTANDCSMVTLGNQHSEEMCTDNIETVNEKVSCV

As for `CCN(CC)C(=O)[C@@H]1C=C2c3cccc4c3c(cn4C(=O)c3ccccc3C)C[C@H]2N(C)C1` [SYN-L-008, 1-(o-toluoyl)-lysergic acid diethylamide], in data set [1], the “Substitution for ALD-52” value is listed as “Partial” and the Emax is 25%.

As to `CCC(=O)n1cc2c3c(cccc31)C1=C[C@@H](C(=O)N(CC)C3CC3)CN(C)[C@@H]1C2` [SYN-L-197, 1-propionyl-lyserqic acid ethylcyclopropylamide], in data set [1], the “Substitution for ALD-52” value is given as “Partial” and the Emax stood at 50%.

For `C=CCN1C[C@H](C(=O)N(C)C(C)C)C=C2c3cccc4c3c(cn4C(=O)CC)C[C@H]21` [SYN-L-073, 1-propionyl-6-allyl-6-nor-lysergic acid methylisopropylamide], in data set [1], the “Substitution for ALD-52” value is reported as “Partial” and the Emax stood at 50%.

Take `C=C(C)CN1C[C@H](C(=O)N(CC)CC)C=C2c3cccc4c3c(cn4C(=O)CC)C[C@H]21` [SYN-L-203, 1-propionyl-6-methallyl-6-nor-lysergic acid diethylamide]: in data set [1], the “Substitution for ALD-52” value is on record as “Partial” and the Emax came out at 25%.

`CCCCCCCCCCCC(=O)n1cc2c3c(cccc31)C1=C[C@@H](C(=O)N(CC)CC)CN(C)[C@@H]1C2` [SYN-L-004, 1-dodecanoyl-lysergic acid diethylamide]: in data set [1], the “Substitution for ALD-52” value is “Partial”, the Emax worked out at 25% and the Duration result is recorded as “Slightly longer”.

On to `CCCCCCCCCCCCCCCCCC(=O)n1cc2c3c(cccc31)C1=C[C@@H](C(=O)N(CC)CC)CN(C)[C@@H]1C2` [SYN-L-042, 1-stearoyl-lyserqic acid diethylamide], for which, in data set [1], the “Substitution for ALD-52” value is recorded as “Partial” and the Emax worked out at 25%.

As to `CCN(CC)C(=O)[C@@H]1C=C2c3cccc4c3c(cn4C(C)=O)C[C@H]2N(C)C1` [ALD-52, 1-acetyl-d-lysergic acid diethylamide], the “average HTR count” value in data set [2] is given as 16.6.

In the case of `CCC(=O)n1c(Br)c2c3c(cccc31)C1=C[C@@H](C(=O)N(CC)CC)CN(C)[C@@H]1C2` [SYN-L-017, 1-propionyl-2-bromo-lysergic acid diethylamide], in data set [1], the “Substitution for ALD-52” value was “No substitution” and the Emax is 0%. Further, in data set [3] (after four weeks, 3 mg tartrate capsule oral, one day on, two days off), the “average self-rated severity of cluster headache attacks” value is on record as 4.46 /10. In addition, the “average cluster headache attacks per day” value in data set [3] (after four weeks) is 2.13 attacks per day. For the same molecule, in data set [3] (eight-week study), the “side effects consistent with psychedelic effects” value is recorded as “No side effects consistent with psychedelic effects were reported”; the “volunteers reporting no side effects of any significance” value turned out to be 75%; the “volunteers reporting side effects including dizziness, nausea, fatigue, difficulty concentrating and insomnia” value stood at 25%; the “volunteers who thought the drug more effective than their normally used prescribed medication” value turned out to be 83.33%. For the same molecule, the “perceived severity of side effects” value in data set [3] (eight-week study, none rated moderate or severe) is on record as “mild”. For the same molecule, in data set [3] (end of the eight weeks), the “average cluster headache attacks per day” value stood at 1.78 attacks per day and the “average self-rated severity of cluster headache attacks” value is reported as 3.72 /10. Besides, the “volunteers reporting improvement of cluster headache symptoms” value in data set [3] (overall, eight-week study) stood at 91.67%.

For the molecule `CCN(CC)C(=O)[C@@H]1C=C2c3cccc4c3c(cn4S(=O)(=O)C3CC3)C[C@H]2N(C)C1` [SYN-L-014, 1-cyclopropanesulfonyl-lysergic acid diethylamide], in data set [1], the “Substitution for ALD-52” value is recorded as “No substitution” and the Emax was determined as 0%.

Regarding `CCCCCCCC/C=C\CCCCCCCC(=O)n1cc2c3c(cccc31)C1=C[C@@H](C(=O)N(CC)CC)CN(C)[C@@H]1C2` [SYN-L-043, 1-oleoyl-lyserqic acid diethylamide], in data set [1], the “Substitution for ALD-52” value is recorded as “Partial” and the Emax came out at 25%.

Take `CC(=O)n1cc2c3c(cccc31)C1=C[C@@H](C(=O)N3CCOCC3)CN(C)[C@@H]1C2` [SYN-L-196, 1-acetyl-lysergic acid morpholide]: in data set [1], the “Substitution for ALD-52” value is given as “Partial” and the Emax worked out at 50%.

Turning to `CCN(CC)C(=O)[C@@H]1C=C2c3cccc4c3c(cn4C(=O)C(C)(C)C)C[C@H]2N(C)C1` [SYN-L-024, 1-pivaloyl-lysergic acid diethylamide], in data set [1], the “Substitution for ALD-52” value is reported as “Partial”, the Emax is 25% and the Duration entry was “Shorter duration”.
